According to ChEMBL document CHEMBL4616673 (J Med Chem, 2020):
≈ marks a conversion by molar mass, not a printed value.

Assays:
[1] = biological target: Dihydroorotate dehydrogenase (quinone), mitochondrial (Homo sapiens, UniProt Q02127); experiment: Inhibition of human DHODH using dihydroorotate as substrate and CoQ10 as co-substrate preincubated for 30 mins followed by substrate addition by DCIP coupled microplate reader assay
MCF7 = experiment: Antiproliferative activity against human MCF7 cells assessed as reduction in cell viability measured after 48 hrs by MTT assay; assay type: functional, cell-based; conditions: Homo sapiens, MCF7, 48 h
A549 = experiment: Antiproliferative activity against human A549 cells assessed as reduction in cell viability measured after 48 hrs by MTT assay; assay type: functional, cell-based; conditions: Homo sapiens, A549, 48 h
NAMALVA = experiment: Antiproliferative activity against human NAMALWA cells assessed as reduction in cell viability measured after 48 hrs by MTT assay; assay type: functional, cell-based; conditions: Homo sapiens, NAMALVA, 48 h
HeLa = experiment: Antiproliferative activity against human HeLa cells assessed as reduction in cell viability measured after 48 hrs by MTT assay; assay type: functional, cell-based; conditions: Homo sapiens, HeLa, 48 h
A-375 = experiment: Antiproliferative activity against human A375 cells assessed as reduction in cell viability measured after 48 hrs by MTT assay; assay type: functional, cell-based; conditions: Homo sapiens, A-375, 48 h
K562 = experiment: Antiproliferative activity against human K562 cells assessed as reduction in cell viability measured after 48 hrs by MTT assay; assay type: functional, cell-based; conditions: Homo sapiens, K562, 48 h
Raji = experiment: Antiproliferative activity against human Raji cells assessed as reduction in cell viability measured after 48 hrs by MTT assay; assay type: functional, cell-based; conditions: Homo sapiens, Raji, 48 h
[2] = Solubility of the compound in PBS; assay type: physicochemical
HCT-116 = experiment: Antiproliferative activity against human HCT116 cells assessed as reduction in cell viability measured after 48 hrs by MTT assay; assay type: functional, cell-based; conditions: Homo sapiens, HCT-116, 48 h
[3] = Competitive inhibition of Plasmodium falciparum DHODH

Dihydroorotate dehydrogenase (quinone), mitochondrial, sequence (Q02127 whole entry): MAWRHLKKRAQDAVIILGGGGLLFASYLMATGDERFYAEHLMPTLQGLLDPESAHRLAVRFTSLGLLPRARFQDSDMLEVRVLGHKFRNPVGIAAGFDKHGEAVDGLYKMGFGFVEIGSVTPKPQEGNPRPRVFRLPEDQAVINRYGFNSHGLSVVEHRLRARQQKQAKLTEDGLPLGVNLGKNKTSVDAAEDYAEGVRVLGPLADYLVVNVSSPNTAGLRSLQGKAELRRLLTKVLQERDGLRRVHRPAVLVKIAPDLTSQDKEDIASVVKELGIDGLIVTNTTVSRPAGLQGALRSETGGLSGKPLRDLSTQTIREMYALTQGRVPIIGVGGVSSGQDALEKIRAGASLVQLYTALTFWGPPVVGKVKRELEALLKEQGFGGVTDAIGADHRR

CC(C)c1ccc(-n2nnc3c2C(=O)c2ccccc2C3=O)cc1
IC50 [1]: 560 nM

COc1ccccc1-n1nnc2c1C(=O)c1ccccc1C2=O
IC50 [1]: > 1000 nM

COc1ccc2c(c1)C(=O)c1nnn(-c3cc(F)c(-c4ccccc4F)c(F)c3)c1C2=O
IC50 [1]: > 1000 nM

Nc1cccc(-c2ccc(-n3nnc4c3C(=O)c3ccccc3C4=O)cc2)c1
IC50 (MCF7): > 10 µM
IC50 (A549): > 10 µM
IC50 (NAMALVA): > 10 µM
IC50 [1]: 3.1 nM
IC50 (HeLa): > 10 µM
IC50 (A-375): 250 nM
IC50 (K562): > 10 µM
IC50 (Raji): 1.36 µM
solubility [2]: < 10 µg/mL
IC50 (HCT-116): 880 nM

COc1ccc2c(c1)C(=O)c1c(nnn1-c1cc(F)c(-c3ccccc3F)c(F)c1)C2=O
IC50 [1]: > 1000 nM

O=C1c2ccccc2C(=O)c2c1nnn2-c1ccnc(Cl)c1
IC50 [1]: > 1000 nM

O=C1c2ccccc2C(=O)c2c1nnn2-c1ccc(-c2cccnc2)cc1
IC50 [1]: 422 nM

O=C1c2ccccc2C(=O)c2c1nnn2-c1ccc(Cl)nc1
IC50 [1]: > 1000 nM

O=C1c2ccccc2C(=O)c2c1nnn2-c1ccc2c(c1)OCO2
IC50 [1]: > 1000 nM

O=C(c1ccccc1)c1cn(-c2cc(F)c(-c3ccccc3F)c(F)c2)nn1
IC50 [1]: > 1000 nM

O=C1c2ccccc2C(=O)c2c1nnn2-c1ccc2ccccc2c1
IC50 [1]: > 1000 nM

O=C1c2ccccc2C(=O)c2c1nnn2-c1ccc(-c2cccc(O)c2)cc1
IC50 (MCF7): > 10 µM
IC50 (A549): > 10 µM
IC50 (NAMALVA): > 10 µM
IC50 [1]: 21 nM
IC50 (HeLa): > 10 µM
IC50 (A-375): > 10000 nM
IC50 (K562): 7.09 µM
IC50 (Raji): 9.04 µM
IC50 (HCT-116): > 10000 nM

O=C1c2cc(O)ccc2C(=O)c2c1nnn2-c1cc(F)c(-c2ccccc2F)c(F)c1
IC50 [1]: > 1000 nM

Cc1ccc(-n2nnc3c2C(=O)c2ccccc2C3=O)cc1C(F)(F)F
IC50 [1]: > 1000 nM

CN(C)c1cccc(-c2c(F)cc(-n3nnc4c3C(=O)c3ccccc3C4=O)cc2F)c1
IC50 (MCF7): > 10 µM
IC50 (A549): > 10 µM
IC50 (NAMALVA): > 10 µM
IC50 [1]: 0.5 nM
IC50 (HeLa): 2.02 µM
IC50 (A-375): 20 nM
IC50 (K562): > 10 µM
IC50 (Raji): 2.15 µM
solubility [2]: < 10 µg/mL
IC50 (HCT-116): 410 nM

O=C1c2ccccc2C(=O)c2c1nnn2-c1ccc(N2CCOCC2)nc1
IC50 [1]: > 1000 nM

O=C1c2ccccc2C(=O)c2c1nnn2-c1ccc(-c2cncnc2)cc1
IC50 [1]: > 1000 nM

CC1(C)CC(=O)c2nnn(-c3cc(F)c(-c4ccccc4F)c(F)c3)c2C1
IC50 [1]: > 1000 nM

O=C1c2ccccc2C(=O)c2c1nnn2-c1ccc(-c2ccccc2)cc1
IC50 (MCF7): > 10 µM
IC50 (A549): > 10 µM
IC50 (NAMALVA): 1.87 µM
IC50 [1]: 19 nM
IC50 (HeLa): > 10 µM
IC50 (A-375): 5830 nM
IC50 (K562): > 10 µM
IC50 (Raji): 4.61 µM
IC50 (HCT-116): 4230 nM

O=C1c2ccccc2C(=O)c2c1nnn2-c1cc(F)c(-c2cccc(CO)c2F)c(F)c1
IC50 (MCF7): > 10 µM
IC50 (A549): > 10 µM
IC50 (NAMALVA): > 10 µM
IC50 [1]: 1.2 nM
IC50 (HeLa): > 10 µM
IC50 (A-375): 30 nM
IC50 (K562): > 10 µM
IC50 (Raji): > 10 µM
solubility [2]: 17.6 µg/mL (≈ 40.4 µM)
IC50 (HCT-116): 150 nM

Cc1cc(-n2nnc3c2C(=O)c2ccccc2C3=O)ccc1F
IC50 [1]: > 1000 nM

O=C1c2ccccc2C(=O)c2c1nnn2-c1ccc(-c2ccccc2F)cc1
IC50 (MCF7): > 10 µM
IC50 (A549): > 10 µM
IC50 (NAMALVA): 2.79 µM
IC50 [1]: 4.5 nM
IC50 (HeLa): > 10 µM
IC50 (A-375): 2980 nM
IC50 (K562): 1.87 µM
IC50 (Raji): 2.23 µM
solubility [2]: < 10 µg/mL
IC50 (HCT-116): 3330 nM

O=C1c2ccccc2C(=O)c2c1nnn2-c1cccc(I)c1
IC50 [1]: > 1000 nM

O=C1c2ccc(F)cc2C(=O)c2c1nnn2-c1cc(F)c(-c2ccccc2F)c(F)c1
IC50 [1]: 152 nM

O=C1c2ccccc2C(=O)c2c1nnn2-c1ccc(-c2ccncc2)cc1
IC50 [1]: > 1000 nM

O=C1C(O)=C([C@H]2CC[C@H](c3ccc(Cl)cc3)CC2)C(=O)c2ccccc21 [ATOVAQUONE]
Ki [3]: 27 µM

CC(C)c1ccc(-c2cc(F)c(-n3nnc4c3C(=O)c3ccccc3C4=O)c(F)c2)cc1
IC50 [1]: > 1000 nM

O=C1c2ccccc2C(=O)c2c1nnn2-c1ccccc1C(F)(F)F
IC50 [1]: > 1000 nM

O=C1c2ccccc2C(=O)c2c1nnn2-c1cc(F)c(-c2ccc(F)cc2)c(F)c1
IC50 (MCF7): > 10 µM
IC50 (A549): > 10 µM
IC50 (NAMALVA): > 10 µM
IC50 [1]: 6.9 nM
IC50 (HeLa): > 10 µM
IC50 (A-375): 1580 nM
IC50 (K562): > 10 µM
IC50 (Raji): > 10 µM
IC50 (HCT-116): 2250 nM
